Measurements published in ChEMBL document CHEMBL1128633, “Synthesis and pharmacokinetics of potent carbamate HIV-1 protease inhibitors containing novel high affinity hydroxyethylamine isosteres” (Bioorg Med Chem Lett, 1995).

Assays:
[1] = biological target: Human immunodeficiency virus type 1 protease (Human immunodeficiency virus 1, UniProt Q72874); assay: In vitro inhibition of HIV-1 protease.
CEM-SS = assay: Antiviral activity against HIV-1 infected HXB2/CEM-SS cell lines.; assay type: functional; details: Homo sapiens
Rattus norvegicus = species: Rattus norvegicus; assay: (§1) Compound was tested for the duration that the plasma drug concentrations remained above the IC95; assay type: ADME, organism-based; details: in vivo
[2] = Bioavailability in rat (Fisher) (fasted); assay type: ADME, organism-based; details: in vivo
[3] = Plasma half-life following oral administration in Fisher rats; assay type: ADME, organism-based; details: rat
[4] = Cmax value was determined between 15 and 30 minutes post administration in fisher rats; value ranges from 200-500; assay type: ADME, organism-based; details: rat, in vivo
[5] = Peak plasma level between 0.5 and 1.0 hour in Dawley rats; value ranges from 1021-2551; assay type: ADME, organism-based; details: Sprague-Dawley, rat, read-out: Plasma level
[6] = Bioavailability in fasted fisher rats; assay type: ADME, organism-based; details: rat, in vivo
[7] = as §1; assay type: ADME, cell-free
[8] = Plasma half-life following oral administration in fisher rats; assay type: ADME, organism-based; details: rat

Structure (SMILES)	IC50 [1] [nM]	IC95 (CEM-SS) [nM]	other results
C[C@H]1OCC[C@H]1OC(=O)N[C@@H](CSc1ccccc1)[C@H](O)CN1C[C@H]2CCS[C@H]2C[C@H]1C(=O)NC(C)(C)C	3	2560	–
CC(C)[C@@H]1SCC[C@@H]1OC(=O)N[C@@H](Cc1ccccc1)[C@H](O)CN1C[C@H]2CCS[C@H]2C[C@H]1C(=O)NC(C)(C)C	2.6	686	–
CC(C)(C)NC(=O)[C@@H]1C[C@@H]2SCC[C@@H]2CN1C[C@@H](O)[C@H](CSc1ccccc1)NC(=O)O[C@@H]1CCS(=O)(=O)C1	2	59	–
CC(C)[C@H]1SCC[C@H]1OC(=O)N[C@@H](Cc1ccccc1)[C@H](O)CN1C[C@H]2CCS[C@H]2C[C@H]1C(=O)NC(C)(C)C	0.26	85	–
CC(C)[C@@H]1[C@H](OC(=O)N[C@@H](Cc2ccccc2)[C@H](O)CN2C[C@H]3CCCC[C@H]3C[C@H]2C(=O)NC(C)(C)C)CCS1(=O)=O	4.3	85	–
CC(C)(C)NC(=O)[C@@H]1C[C@@H]2CCCC[C@@H]2CN1C[C@@H](O)[C@H](Cc1ccccc1)NC(=O)[C@H](CC(N)=O)NC(=O)c1ccc2ccccc2n1	–	21	–
CC(C)[C@@H]1[C@H](OC(=O)N[C@@H](CSc2ccccc2)[C@H](O)CN2C[C@H]3CCS[C@H]3C[C@H]2C(=O)NC(C)(C)C)CCS1(=O)=O	–	9	Duration (Rattus norvegicus): 3 h; bioavailability [2]: 3.5%; half-life [3]: 1.4 h; Cmax [4]: 200 ng/mL; Cmax [5]: 1020 ng/mL
C[C@@H]1[C@H](OC(=O)N[C@@H](Cc2ccccc2)[C@H](O)CN2C[C@H]3CCCC[C@H]3C[C@H]2C(=O)NC(C)(C)C)CCS1(=O)=O	10	171	–
CC(C)[C@H]1[C@@H](OC(=O)N[C@@H](CSc2ccccc2)[C@H](O)CN2C[C@H]3CCS[C@H]3C[C@H]2C(=O)NC(C)(C)C)CCS1(=O)=O	–	89	–
CC(C)[C@@H]1[C@H](OC(=O)N[C@@H](Cc2ccccc2)[C@H](O)CN2C[C@H]3CCS[C@H]3C[C@H]2C(=O)NC(C)(C)C)CCS1(=O)=O	1.3	38	–
CC(C)[C@H]1[C@@H](OC(=O)N[C@@H](Cc2ccccc2)[C@H](O)CN2C[C@H]3CCCC[C@H]3C[C@H]2C(=O)NC(C)(C)C)CCS1(=O)=O	8.1	273	–
C[C@@H]1[C@H](OC(=O)N[C@@H](CSc2ccccc2)[C@H](O)CN2C[C@H]3CCS[C@H]3C[C@H]2C(=O)NC(C)(C)C)CCS1(=O)=O	0.75	19	bioavailability [6]: 6.3%; Duration [7]: 5 h; half-life [8]: 2.53 h; Cmax [4]: 200 ng/mL; Cmax [5]: 1020 ng/mL
C[C@H]1[C@H](OC(=O)N[C@@H](CSc2ccccc2)[C@H](O)CN2C[C@H]3CCS[C@H]3C[C@H]2C(=O)NC(C)(C)C)CCS1(=O)=O	1.4	44	–
C[C@H]1[C@@H](OC(=O)N[C@@H](CSc2ccccc2)[C@H](O)CN2C[C@H]3CCS[C@H]3C[C@H]2C(=O)NC(C)(C)C)CCS1(=O)=O	0.4	31	Duration (Rattus norvegicus): 6 h; bioavailability [2]: 7.4%; half-life [3]: 1.55 h; Cmax [4]: 200 ng/mL; Cmax [5]: 1020 ng/mL
C[C@@H]1[C@@H](OC(=O)N[C@@H](CSc2ccccc2)[C@H](O)CN2C[C@H]3CCS[C@H]3C[C@H]2C(=O)NC(C)(C)C)CCS1(=O)=O	5.2	45	–
C[C@@H]1OCC[C@@H]1OC(=O)N[C@@H](CSc1ccccc1)[C@H](O)CN1C[C@H]2CCS[C@H]2C[C@H]1C(=O)NC(C)(C)C	0.28	162	–
CC(C)(C)NC(=O)[C@@H]1C[C@@H]2SCC[C@@H]2CN1C[C@@H](O)[C@H](CSc1ccccc1)NC(=O)O[C@H]1CCS(=O)(=O)C1	1.7	59	–
CC(C)[C@H]1[C@@H](OC(=O)N[C@@H](Cc2ccccc2)[C@H](O)CN2C[C@H]3CCS[C@H]3C[C@H]2C(=O)NC(C)(C)C)CCS1(=O)=O	2.6	77	–
